What was measured:
[1] = test system: foxtail, giant (giant foxtail, Setaria faberii); assay: Test A postemergence foxtail, giant; type: in vivo; conditions: Setaria faberi, post-emergence, 240 h, 0 to 100 scale, 0 is no effect, 100 is complete control, read-out: Plant response rating, Foxtail, Giant; for pest or weed control at 125 g/ha: 125 g ai/ha; for pest or weed control at 500 g/ha: 500 g ai/ha
Procedure, shortened: (§1)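 Scores reflect visual comparison with untreated controls after ~10 d in the greenhouse (0 none, 100 complete control). Treatment was a surfactant-containing non-phytotoxic solvent formulation, sprayed onto soil after seeding or onto seedlings at one to two leaves, 2–10 cm tall.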

[2] = test system: sedge, umbrella (small-flower umbrella sedge, Cyperus difformis); assay: Test B flooded paddy test sedge, umbrella; type: in vivo; conditions: Cyperus difformis, Table B, Flood, 250 g ai/ha, scale 0 to 100, read-out: Plant response rating
Procedure, shortened: (§2)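 Plants at 2-leaf stage in pots flooded 3 cm above soil; compounds applied directly into paddy water, depth kept throughout.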

[3] = test system: ryegrass, Italian (Italian ryegrass, Lolium multiflorum); assay: Test A preemergence ryegrass, Italian; type: in vivo; conditions: Lolium multiflorum, pre-emergence, 240 h, 0 to 100 scale, 0 no effect, 100 complete control, read-out: Ryegrass, Italian plant response rating; for pest or weed control at 125 g/ha: 125 g ai/ha; for pest or weed control at 500 g/ha: 500 g ai/ha
Procedure, shortened: as §1

rice (Oryza sativa) = assay: Test B flooded paddy test rice; type: in vivo; conditions: Oryza sativa, Table B, Flood, 250 g ai/ha, scale 0 to 100, read-out: Plant response rating
Procedure, shortened: as §2

[4] = test system: barnyardgrass (Echinochloa crus-galli); assay: Test B flooded paddy test barnyardgrass; type: in vivo; conditions: Echinochloa crus-galli, Table B, Flood, 250 g ai/ha, scale 0 to 100, read-out: Plant response rating
Procedure, shortened: as §2

[5] = test system: wheat (Triticum aestivum); assay: Test A postemergence wheat; type: in vivo; conditions: Triticum aestivum, post-emergence, 240 h, 0 to 100 scale, 0 is no effect, 100 is complete control, read-out: Plant response rating, Wheat; for plant injury at 125 g/ha: 125 g ai/ha; for plant injury at 500 g/ha: 500 g ai/ha
Procedure, shortened: as §1

[6] = test system: pigweed (Amaranthus retroflexus); assay: Test A preemergence pigweed; type: in vivo; conditions: Amaranthus retroflexus, pre-emergence, 240 h, 0 to 100 scale, 0 no effect, 100 complete control, read-out: Pigweed plant response rating; for pest or weed control at 125 g/ha: 125 g ai/ha; for pest or weed control at 500 g/ha: 500 g ai/ha
Procedure, shortened: as §1

[7] = test system: barnyardgrass (Echinochloa crus-galli); assay: Test A postemergence barnyardgrass; type: in vivo; conditions: Echinochloa crus-galli, post-emergence, 240 h, 0 to 100 scale, 0 is no effect, 100 is complete control, read-out: Plant response rating, Barnyardgrass; for pest or weed control at 125 g/ha: 125 g ai/ha; for pest or weed control at 500 g/ha: 500 g ai/ha
Procedure, shortened: as §1

kochia (Kochia scoparia) [8] = assay: Test A postemergence kochia; type: in vivo; conditions: Bassia scoparia, post-emergence, 240 h, 0 to 100 scale, 0 is no effect, 100 is complete control, read-out: Plant response rating, Kochia; for pest or weed control at 125 g/ha: 125 g ai/ha; for pest or weed control at 500 g/ha: 500 g ai/ha
Procedure, shortened: as §1

[9] = test system: ducksalad (Heteranthera limosa); assay: Test B flooded paddy test ducksalad; type: in vivo; conditions: Heteranthera limosa, Table B, Flood, 250 g ai/ha, scale 0 to 100, read-out: Plant response rating
Procedure, shortened: as §2

[10] = test system: pigweed (Amaranthus retroflexus); assay: Test A postemergence pigweed; type: in vivo; conditions: Amaranthus retroflexus, post-emergence, 240 h, 0 to 100 scale, 0 is no effect, 100 is complete control, read-out: Plant response rating, Pigweed; for pest or weed control at 125 g/ha: 125 g ai/ha; for pest or weed control at 500 g/ha: 500 g ai/ha
Procedure, shortened: as §1

[11] = test system: barnyardgrass (Echinochloa crus-galli); assay: Test A preemergence barnyardgrass; type: in vivo; conditions: Echinochloa crus-galli, pre-emergence, 240 h, 0 to 100 scale, 0 no effect, 100 complete control, read-out: Barnyardgrass plant response rating; for pest or weed control at 125 g/ha: 125 g ai/ha; for pest or weed control at 500 g/ha: 500 g ai/ha
Procedure, shortened: as §1

[12] = test system: galium (catchweed bedstraw, Galium aparine); assay: Test A postemergence galium; type: in vivo; conditions: Galium, post-emergence, 240 h, 0 to 100 scale, 0 is no effect, 100 is complete control, read-out: Plant response rating, Galium; for pest or weed control at 125 g/ha: 125 g ai/ha; for pest or weed control at 500 g/ha: 500 g ai/ha
Procedure, shortened: as §1

[13] = test system: ragweed (common ragweed, Ambrosia elatior); assay: Test A preemergence ragweed; type: in vivo; conditions: Ambrosia artemisiifolia, pre-emergence, 240 h, 0 to 100 scale, 0 no effect, 100 complete control, read-out: Ragweed plant response rating; for pest or weed control at 125 g/ha: 125 g ai/ha; for pest or weed control at 500 g/ha: 500 g ai/ha
Procedure, shortened: as §1

kochia (Kochia scoparia) [14] = assay: Test A preemergence kochia; type: in vivo; conditions: Bassia scoparia, pre-emergence, 240 h, 0 to 100 scale, 0 no effect, 100 complete control, read-out: Kochia plant response rating; for pest or weed control at 125 g/ha: 125 g ai/ha; for pest or weed control at 500 g/ha: 500 g ai/ha
Procedure, shortened: as §1

[15] = test system: foxtail, giant (giant foxtail, Setaria faberii); assay: Test A preemergence foxtail, giant; type: in vivo; conditions: Setaria faberi, pre-emergence, 240 h, 0 to 100 scale, 0 no effect, 100 complete control, read-out: Foxtail, Giant plant response rating; for pest or weed control at 125 g/ha: 125 g ai/ha; for pest or weed control at 500 g/ha: 500 g ai/ha
Procedure, shortened: as §1

[16] = test system: ryegrass, Italian (Italian ryegrass, Lolium multiflorum); assay: Test A postemergence ryegrass, Italian; type: in vivo; conditions: Lolium multiflorum, post-emergence, 240 h, 0 to 100 scale, 0 is no effect, 100 is complete control, read-out: Plant response rating, Ryegrass, Italian; for pest or weed control at 125 g/ha: 125 g ai/ha; for pest or weed control at 500 g/ha: 500 g ai/ha
Procedure, shortened: as §1

[17] = test system: blackgrass (Alopecurus myosuroides); assay: Test A postemergence blackgrass; type: in vivo; conditions: Alopecurus myosuroides, post-emergence, 240 h, 0 to 100 scale, 0 is no effect, 100 is complete control, read-out: Plant response rating, Blackgrass; for pest or weed control at 125 g/ha: 125 g ai/ha; for pest or weed control at 500 g/ha: 500 g ai/ha
Procedure, shortened: as §1

corn (Zea mays) = assay: Test A postemergence corn; type: in vivo; conditions: Zea mays, post-emergence, 240 h, 0 to 100 scale, 0 is no effect, 100 is complete control; for Corn plant response rating (crop injury, 0 = no effect, 100 = complete kill) at 125 g/ha: 125 g ai/ha; for Corn plant response rating (crop injury, 0 = no effect, 100 = complete kill) at 500 g/ha: 500 g ai/ha
Procedure, shortened: as §1

[18] = test system: ragweed (common ragweed, Ambrosia elatior); assay: Test A postemergence ragweed; type: in vivo; conditions: Ambrosia artemisiifolia, post-emergence, 240 h, 0 to 100 scale, 0 is no effect, 100 is complete control, read-out: Plant response rating, Ragweed; for pest or weed control at 125 g/ha: 125 g ai/ha; for pest or weed control at 500 g/ha: 500 g ai/ha
Procedure, shortened: as §1

## O=C1NCCC(c2cccc(Cl)c2)C1C(=O)Nc1cccc(F)c1F (centres unmarked) [Compound 36, 4-(3-chlorophenyl)-N-(2,3-difluorophenyl)-2-oxo-3-piperidinecarboxamide]
[1]
  pest or weed control at 125 g/ha: 90%
  pest or weed control at 500 g/ha: 90%
[2]
  pest or weed control at 250 g/ha: 0%
[3]
  pest or weed control at 125 g/ha: 0%
  pest or weed control at 500 g/ha: 30%
Rice (Oryza sativa)
  plant injury at 250 g/ha: 0%
[4]
  pest or weed control at 250 g/ha: 60%
[5]
  plant injury at 125 g/ha: 0%
  plant injury at 500 g/ha: 0%
[6]
  pest or weed control at 125 g/ha: 0%
  pest or weed control at 500 g/ha: 0%
[7]
  pest or weed control at 125 g/ha: 80%
  pest or weed control at 500 g/ha: 90%
Kochia (Kochia scoparia) [8]
  pest or weed control at 125 g/ha: 0%
  pest or weed control at 500 g/ha: 0%
[9]
  pest or weed control at 250 g/ha: 90%
[10]
  pest or weed control at 125 g/ha: 0%
  pest or weed control at 500 g/ha: 0%
[11]
  pest or weed control at 125 g/ha: 90%
  pest or weed control at 500 g/ha: 90%
[12]
  pest or weed control at 125 g/ha: 0%
  pest or weed control at 500 g/ha: 30%
[13]
  pest or weed control at 125 g/ha: 0%
  pest or weed control at 500 g/ha: 0%
Kochia (Kochia scoparia) [14]
  pest or weed control at 125 g/ha: 0%
  pest or weed control at 500 g/ha: 0%
[15]
  pest or weed control at 125 g/ha: 90%
  pest or weed control at 500 g/ha: 90%
[16]
  pest or weed control at 125 g/ha: 0%
  pest or weed control at 500 g/ha: 20%
other
  melting point: 100 to 102 °C
[17]
  pest or weed control at 125 g/ha: 0%
  pest or weed control at 500 g/ha: 60%
Corn (Zea mays)
  Corn plant response rating (crop injury, 0 = no effect, 100 = complete kill) at 125 g/ha: 0%
  Corn plant response rating (crop injury, 0 = no effect, 100 = complete kill) at 500 g/ha: 0%
[18]
  pest or weed control at 125 g/ha: 0%
  pest or weed control at 500 g/ha: 0%

## O=C1NCCC(c2cccc(C(F)F)c2)C1C(=O)Nc1cccc(F)c1F (centres unmarked) [Compound 49, 4-[3-(difluoromethyl)phenyl]-N-(2,3-difluorophenyl)-2-oxo-3-piperidinecarboxamide]
[1]
  pest or weed control at 125 g/ha: 80%
  pest or weed control at 500 g/ha: 80%
[2]
  pest or weed control at 250 g/ha: 0%
[3]
  pest or weed control at 125 g/ha: 0%
  pest or weed control at 500 g/ha: 60%
Rice (Oryza sativa)
  plant injury at 250 g/ha: 0%
[4]
  pest or weed control at 250 g/ha: 70%
[5]
  plant injury at 125 g/ha: 0%
  plant injury at 500 g/ha: 30%
[6]
  pest or weed control at 125 g/ha: 0%
  pest or weed control at 500 g/ha: 0%
[7]
  pest or weed control at 125 g/ha: 80%
  pest or weed control at 500 g/ha: 90%
Kochia (Kochia scoparia) [8]
  pest or weed control at 125 g/ha: 0%
  pest or weed control at 500 g/ha: 0%
[9]
  pest or weed control at 250 g/ha: 100%
[10]
  pest or weed control at 125 g/ha: 0%
  pest or weed control at 500 g/ha: 0%
[11]
  pest or weed control at 125 g/ha: 80%
  pest or weed control at 500 g/ha: 90%
[12]
  pest or weed control at 125 g/ha: 0%
  pest or weed control at 500 g/ha: 0%
[13]
  pest or weed control at 125 g/ha: 0%
  pest or weed control at 500 g/ha: 0%
Kochia (Kochia scoparia) [14]
  pest or weed control at 125 g/ha: 0%
  pest or weed control at 500 g/ha: 0%
[15]
  pest or weed control at 125 g/ha: 90%
  pest or weed control at 500 g/ha: 90%
[16]
  pest or weed control at 125 g/ha: 0%
  pest or weed control at 500 g/ha: 0%
other
  melting point: 134 to 137 °C
[17]
  pest or weed control at 125 g/ha: 0%
  pest or weed control at 500 g/ha: 50%
Corn (Zea mays)
  Corn plant response rating (crop injury, 0 = no effect, 100 = complete kill) at 125 g/ha: 0%
  Corn plant response rating (crop injury, 0 = no effect, 100 = complete kill) at 500 g/ha: 50%
[18]
  pest or weed control at 125 g/ha: 0%
  pest or weed control at 500 g/ha: 0%
